In patent publication US7541380B2, “Use of rapamycin and structural analogues thereof” (Universita' Degli Studi do Ferrara, priority 2002, dated 2009):

Key:
mRNA for gamma-globin [1] = experiment: Quantitative RT-PCR of mRNA for gamma-globin in human erythroid precursors isolated from peripheral blood (two-stage culture of Fibach et al.); assay type: cell-based; settings: for mRNA for gamma-globin (increase compared with untreated control erythroid precursors): rapamycin 3 μM, hydroxyurea 120 μM, control = 1
Source text: In order to check whether rapamycin was capable, in addition to inducing K562 cell differentiation, of stimulating the production of mRNA for gamma-globin in human erythroid precursors isolated from peripheral blood, the technique published by Fibach et al. (19, 20) was used. This technique provides for two stages: in the first stage, the cells isolated from peripheral blood of a subject who is healthy or suffering from a haemopoietic pathology, such as sickle cell anaemia or beta-thalassaemia, are sown in a culture medium to which 10% of conditioned medium derived from the vesicle carcinoma cell line 5637 has been added. The second stage consists in cultivating the isolated cells in a suitable culture medium, supplemented by the erythropoietin hormone, 30% foetal bovine serum, 2-mercaptoethanol, albumin, glutamine and desamethasone in order to permit the proliferation and maturing of stem cells of the erythroid type. In this stage the cells can be treated with potential HbF inducers.

human cell cultures = experiment: Cytotoxic effect in human cell cultures; assay type: cell-based; settings: compared with hydroxyurea
Protocol: The activity of rapamycin as an inducer of erythroid cell differentiation and the production of mRNA for gamma-globin was evaluated in human cell cultures. The results of this study are illustrated in the Tables given in the section relating to the Examples.

human cell line K562 [2] = experiment: Haemoglobin production in K562 cells by electrophoresis on cellulose acetate and benzidine/H2O2 staining; assay type: cell-based; settings: K562 cells treated with rapamycin
Protocol: (§1) The level of differentiation was evaluated by analysing the positive reaction of the cells to benzidine (3). […] The production of haemoglobin was evaluated by electrophoresis on cellulose acetate and by staining the gel with a solution based on benzidine/H2O2 (3). […] The expression of genes coding for gamma-globins was evaluated by quantitative RT-PCR (reverse transcriptase PCR) (3).

human cell line K562 [3] = experiment: Erythroid differentiation of K562 cells (benzidine-positive cells); settings: 20 nM, mean ± SD of 6 experiments, control 4.1%
Protocol: as §1

mRNA for gamma-globin [4] = experiment: Quantitative RT-PCR of mRNA for gamma-globin in K562 cells; assay type: cell-based, human; settings: 20 nM, 6 days of induction, control = 1
Protocol: as §1

Compound	mRNA for gamma-globin (increase compared with untreated control erythroid precursors) (mRNA for gamma-globin [1])	Cytotoxic effect (human cell cultures)	Chief haemoglobin produced (human cell line K562 [2])	Increase in the production of mRNA for gamma-globin compared with the same untreated cells (mRNA for gamma-globin [1]) [times]	Erythroid differentiation = percentage of K562 cells that react positively to benzidine (human cell line K562 [3]) [%]	Erythroid differentiation = percentage of K562 cells that react positively to benzidine (human cell line K562 [3]; listed as rapamycin)	mRNA for gamma-globin (increase compared with untreated control K562 cells) (mRNA for gamma-globin [4])
NC(=O)NO [Hydroxyurea, hydroxyurea]	2.25						
CO[C@H]1C[C@@H]2CC[C@@H](C)[C@@](O)(O2)C(=O)C(=O)N2CCCC[C@H]2C(=O)O[C@H]([C@H](C)C[C@@H]2CC[C@@H](O)[C@H](OC)C2)CC(=O)[C@H](C)/C=C(\C)[C@@H](O)[C@@H](OC)C(=O)[C@H](C)C[C@H](C)/C=C/C=C/C=C/1C [Rapamycin, rapamycin]	3.73	much lower than that of hydroxyurea	Hb Portland (alpha2gamma2)	3.75	45.5 ± 5.8	40-45%	2.4
